The record followed here is patent publication US8138350B2, “N′-cyano-N-halogenalkylimidamide derivatives” (Bayer Cropscience AG, priority 2006, dated 2012).

Holding throughout (format): in vivo
One assay has as its system Musca domestica. Nature of the assay: Musca domestica test. As to conditions: 100 ppm; treated sponge; after 2 d; adult flies; comparative example. As for the experimental part: (§1) Solvent: Dimethyl sulphoxide
To produce a suitable preparation of active compound, 1 part by weight of active compound is mixed with the stated amount of water, and the concentrate is diluted with water to the desired concentration.
Containers containing a sponge treated with the active compound preparation of the desired concentration are populated with adult Musca domestica.
After the desired period of time, the kill in % is determined. 100% means that all flies have been killed; 0% means that none of the flies have been killed.

For another assay, the system named is Phaedon cochleariae. Nature of the assay: Phaedon test (spray treatment). Particulars: 20 g/ha; after 7 d; comparative example. As for the experimental part: Phaedon Test (Spray Treatment)
To produce a suitable preparation of active compound, 1 part by weight of active compound is mixed with the stated amounts of solvents and emulsifier, and the concentrate is diluted with emulsifier-containing water to the desired concentration.
After the desired period of time, the activity in % is determined. 100% means that all beetle larvae have been killed, 0% means that none of the beetle larvae have been killed.
In this test, for example, the following compounds of the Preparation Examples show an activity of ≧80% at an application rate of 500 g/ha: […]

The subject of another assay is Ctenocephalides felis. Kind of assay: Ctenocephalides felis; oral. Particulars: 100 ppm in citrated cattle blood, after 2 d, adult fleas, comparative example. The procedure:
Ctenocephalides Felis; Oral
as §1
To produce a suitable preparation of active compound, 1 part by weight of active compound is mixed with the stated amount of […]. Part of the concentrate is diluted with citrated cattle blood, and the desired concentration is prepared.
20 unfed adult fleas (Ctenocephalides felis) are placed into a chamber whose top and bottom ends are closed with gauze. A metal cylinder whose bottom end is closed with parafilm is placed onto the chamber. The cylinder contains the blood/active compound preparation, which can be taken up by the fleas through the parafilm membrane. The blood is warmed to 37° C., but the flea chamber is at room temperature.
After the desired period of time, the kill in % is determined. 100% means that all fleas have been killed; 0% means that none of the fleas have been killed.

On to `CCN(Cc1ccc(Cl)nc1)C(C)=NC#N`, for which the “Musca domestica % 2 d (kill)” value in the assay on Musca domestica came out at 0%. The “Phaedon test spray treatment % 7 d” value in the assay with Phaedon cochleariae is on record as 0%. Further, in the assay with Ctenocephalides felis, the “Ctenocephalides felis % 2 d (kill)” value amounted to 30%.

On to `CC(=NC#N)N(Cc1ccc(Cl)nc1)CC(F)F` [I-1, N-[(6-chloropyridin-3-yl)methyl]-N′-cyano-N-(2,2-difluoroethyl)ethanimidamide], for which the “Musca domestica % 2 d (kill)” value with Musca domestica worked out at 100%. The “Phaedon test spray treatment % 7 d” value in the assay with Phaedon cochleariae is listed as 100%. Also, the “Ctenocephalides felis % 2 d (kill)” value with Ctenocephalides felis is reported as 70%.
